Each block holds one compound with its values, some of them ahead of it.
Assay: Heating/drying of the solid form, rechecked by XRPD and DSC
Assay type: physicochemical
Conditions: for Solid form after heating (XRPD, DSC): heated to 160° C. under vacuum, 5 minutes
Description: Details of XRPD method used in the tests are mentioned below:
Details of DSC method used in the tests are mentioned below:
Heat from 30° C. to 350° C. at 10° C./min
Form II was further dried by heating (e.g. 60° C. for 1 h) after being checked by XRPD, DSC, TGA and NMR. The XRPD and DSC of Form II were rechecked following the dehydration process.
Form III was further dried at 120° C. after being checked by XRPD, DSC, TGA and NMR. The XRPD and DSC were rechecked.
Amorphous deferasirox was heated to 160° C. under vacuum and kept at this temperature for 5 min. The formed crystal was rechecked by XRPD and DSC.

Solid form after heating/drying (XRPD, DSC) (heated to 60° C. for 1 hr): converted to Form I
SMILES: O=C(O)c1ccc(-n2nc(-c3ccccc3O)nc2-c2ccccc2O)cc1 [Form II, 4-[3,5-Bis(2-hydroxyphenyl)-1H-1,2,4-triazol-1-yl]benzoic acid]

Solid form after heating/drying (XRPD, DSC) (dried at 120° C. for 1 hr, vacuum): converted to Form I
SMILES: O=C(O)c1ccc(-n2nc(-c3ccccc3O)nc2-c2ccccc2O)cc1 [Form V, 4-[3,5-Bis(2-hydroxyphenyl)-1H-1,2,4-triazol-1-yl]benzoic acid]

Solid form after heating (XRPD, DSC): converted to Form I | Solid form after heating (XRPD, DSC) (listed as Amorphous): transformed into Form I
SMILES: O=C(O)c1ccc(-n2nc(-c3ccccc3O)nc2-c2ccccc2O)cc1 [amorphous deferasirox, 4-[3,5-Bis(2-hydroxyphenyl)-1H-1,2,4-triazol-1-yl]benzoic acid]

Reference: patent US8772503B2, “Processes for the preparation of deferasirox, and deferasirox polymorphs” (Mapi Pharma Ltd., priority 2009, dated 2014)
